Data as given in patent publication US20230398130A1, “METHODS AND COMPOSITIONS FOR DIFFERENTIATING STEM CELLS” (Massachusetts Institute of Technology, priority 2020, published 2023).
Structures can show the parent of a compound that is named as a salt.

Experiments:
ISC-enriched organoids [1] = test: Primary screen, 384-well 2.5-D organoid differentiation (ENR+CD, 6 days, Target Selective Inhibitor Library, vs whole-plate median): ATP (CellTiter-Glo 3D, CTG); conditions: for Dose.FC.CTG: ENR+CD, 6 days, FC vs plate median; for Z.CTG: standard z score of FC
ISC-enriched organoids [2] = test: Primary screen, 384-well 2.5-D organoid differentiation (ENR+CD, 6 days): carbachol-induced lysozyme secretion (LYZ.S); type: cell-based, murine; conditions: ENR+CD, 6 days, FC vs plate median
Description: (§1) High-throughput screening.

ISC-enriched organoids [3] = test: Primary screen, 384-well 2.5-D organoid differentiation (ENR+CD, 6 days): basal lysozyme secretion (LYZ.NS); type: cell-based, murine; conditions: for Dose.FC.LYZ.NS: ENR+CD, 6 days, FC vs plate median; for Z.LYZ.NS: standard z score of FC
Description: as §1

## COc1cccc2c1C(=O)c1c(O)c3c(c(O)c1C2=O)C[C@@](O)(C(C)=O)C[C@@H]3O[C@H]1C[C@H](N)[C@H](O)[C@H](C)O1 [Daunorubicin HCl]
ISC-enriched organoids [1]; Dose 0.08 uM
  Dose.FC.CTG: −0.467 log 2 fold change
  Z.CTG: −1.115
ISC-enriched organoids [1]; Dose 0.40 uM
  Dose.FC.CTG: −0.601 log 2 fold change
  Z.CTG: −1.436
ISC-enriched organoids [1]; Dose 2.00 uM
  Dose.FC.CTG: −0.817 log 2 fold change
  Z.CTG: −1.950
ISC-enriched organoids [1]; Dose 10.00 uM
  Dose.FC.CTG: −1.100 log 2 fold change
  Z.CTG: −2.628
ISC-enriched organoids [2]; Dose 0.08 uM
  Dose.FC.LYZ.S: −0.096 log 2 fold change
ISC-enriched organoids [2]; Dose 0.40 uM
  Dose.FC.LYZ.S: −0.329 log 2 fold change
ISC-enriched organoids [2]; Dose 2.00 uM
  Dose.FC.LYZ.S: −0.343 log 2 fold change
ISC-enriched organoids [2]; Dose 10.00 uM
  Dose.FC.LYZ.S: −0.374 log 2 fold change
ISC-enriched organoids [3]; Dose 0.08 uM
  Dose.FC.LYZ.NS: −0.136 log 2 fold change
  Z.LYZ.NS: −1.188
ISC-enriched organoids [3]; Dose 0.40 uM
  Dose.FC.LYZ.NS: −0.241 log 2 fold change
  Z.LYZ.NS: −2.099
ISC-enriched organoids [3]; Dose 2.00 uM
  Dose.FC.LYZ.NS: −0.262 log 2 fold change
  Z.LYZ.NS: −2.280
ISC-enriched organoids [3]; Dose 10.00 uM
  Dose.FC.LYZ.NS: −0.260 log 2 fold change
  Z.LYZ.NS: −2.262

## C[C@]12C=CC(=O)N[C@@H]1CC[C@@H]1[C@@H]2CC[C@]2(C)[C@@H](C(=O)Nc3cc(C(F)(F)F)ccc3C(F)(F)F)CC[C@@H]12 [Dutasteride]
ISC-enriched organoids [1]; Dose 0.08 uM
  Dose.FC.CTG: 0.057 log 2 fold change
  Z.CTG: 0.137
ISC-enriched organoids [1]; Dose 0.40 uM
  Dose.FC.CTG: −0.266 log 2 fold change
  Z.CTG: −0.636
ISC-enriched organoids [1]; Dose 2.00 uM
  Dose.FC.CTG: −0.098 log 2 fold change
  Z.CTG: −0.234
ISC-enriched organoids [1]; Dose 10.00 uM
  Dose.FC.CTG: −0.057 log 2 fold change
  Z.CTG: −0.137
ISC-enriched organoids [2]; Dose 0.08 uM
  Dose.FC.LYZ.S: 0.001 log 2 fold change
ISC-enriched organoids [2]; Dose 0.40 uM
  Dose.FC.LYZ.S: −0.054 log 2 fold change
ISC-enriched organoids [2]; Dose 2.00 uM
  Dose.FC.LYZ.S: −0.074 log 2 fold change
ISC-enriched organoids [2]; Dose 10.00 uM
  Dose.FC.LYZ.S: −0.151 log 2 fold change
ISC-enriched organoids [3]; Dose 0.08 uM
  Dose.FC.LYZ.NS: 0.065 log 2 fold change
  Z.LYZ.NS: 0.568
ISC-enriched organoids [3]; Dose 0.40 uM
  Dose.FC.LYZ.NS: 0.006 log 2 fold change
  Z.LYZ.NS: 0.052
ISC-enriched organoids [3]; Dose 2.00 uM
  Dose.FC.LYZ.NS: −0.105 log 2 fold change
  Z.LYZ.NS: −0.915
ISC-enriched organoids [3]; Dose 10.00 uM
  Dose.FC.LYZ.NS: −0.092 log 2 fold change
  Z.LYZ.NS: −0.799

## CCn1c2ccccc2c2cc(Nc3ccnc(NCCCN4CCOCC4)n3)ccc21 [EHop-016]
ISC-enriched organoids [1]; Dose 0.08 uM
  Dose.FC.CTG: 0.081 log 2 fold change
  Z.CTG: 0.193
ISC-enriched organoids [1]; Dose 0.40 uM
  Dose.FC.CTG: 0.062 log 2 fold change
  Z.CTG: 0.147
ISC-enriched organoids [1]; Dose 2.00 uM
  Dose.FC.CTG: 0.088 log 2 fold change
  Z.CTG: 0.211
ISC-enriched organoids [1]; Dose 10.00 uM
  Dose.FC.CTG: −0.757 log 2 fold change
  Z.CTG: −1.808
ISC-enriched organoids [2]; Dose 0.08 uM
  Dose.FC.LYZ.S: 0.091 log 2 fold change
ISC-enriched organoids [2]; Dose 0.40 uM
  Dose.FC.LYZ.S: 0.012 log 2 fold change
ISC-enriched organoids [2]; Dose 2.00 uM
  Dose.FC.LYZ.S: −0.011 log 2 fold change
ISC-enriched organoids [2]; Dose 10.00 uM
  Dose.FC.LYZ.S: −0.299 log 2 fold change
ISC-enriched organoids [3]; Dose 0.08 uM
  Dose.FC.LYZ.NS: 0.177 log 2 fold change
  Z.LYZ.NS: 1.537
ISC-enriched organoids [3]; Dose 0.40 uM
  Dose.FC.LYZ.NS: 0.035 log 2 fold change
  Z.LYZ.NS: 0.302
ISC-enriched organoids [3]; Dose 2.00 uM
  Dose.FC.LYZ.NS: 0.029 log 2 fold change
  Z.LYZ.NS: 0.252
ISC-enriched organoids [3]; Dose 10.00 uM
  Dose.FC.LYZ.NS: −0.203 log 2 fold change
  Z.LYZ.NS: −1.769

## COc1cccc(C=NCCN=Cc2cccc(OC)c2[O-])c1[O-].[Cl-].[Mn+3] [EUK 134]
ISC-enriched organoids [1]; Dose 0.08 uM
  Dose.FC.CTG: −0.015 log 2 fold change
  Z.CTG: −0.035
ISC-enriched organoids [1]; Dose 0.40 uM
  Dose.FC.CTG: −0.162 log 2 fold change
  Z.CTG: −0.387
ISC-enriched organoids [1]; Dose 2.00 uM
  Dose.FC.CTG: 0.091 log 2 fold change
  Z.CTG: 0.217
ISC-enriched organoids [1]; Dose 10.00 uM
  Dose.FC.CTG: −0.024 log 2 fold change
  Z.CTG: −0.057
ISC-enriched organoids [2]; Dose 0.08 uM
  Dose.FC.LYZ.S: 0.025 log 2 fold change
ISC-enriched organoids [2]; Dose 0.40 uM
  Dose.FC.LYZ.S: 0.057 log 2 fold change
ISC-enriched organoids [2]; Dose 2.00 uM
  Dose.FC.LYZ.S: −0.034 log 2 fold change
ISC-enriched organoids [2]; Dose 10.00 uM
  Dose.FC.LYZ.S: −0.132 log 2 fold change
ISC-enriched organoids [3]; Dose 0.08 uM
  Dose.FC.LYZ.NS: 0.068 log 2 fold change
  Z.LYZ.NS: 0.594
ISC-enriched organoids [3]; Dose 0.40 uM
  Dose.FC.LYZ.NS: 0.003 log 2 fold change
  Z.LYZ.NS: 0.026
ISC-enriched organoids [3]; Dose 2.00 uM
  Dose.FC.LYZ.NS: 0.028 log 2 fold change
  Z.LYZ.NS: 0.247
ISC-enriched organoids [3]; Dose 10.00 uM
  Dose.FC.LYZ.NS: −0.085 log 2 fold change
  Z.LYZ.NS: −0.741

## NC(=O)C1CCCc2c1[nH]c1ccc(Cl)cc21 (stereo not shown) [EX 527 (Selisistat)]
ISC-enriched organoids [1]; Dose 0.08 uM
  Dose.FC.CTG: 0.240 log 2 fold change
  Z.CTG: 0.574
ISC-enriched organoids [1]; Dose 0.40 uM
  Dose.FC.CTG: 0.174 log 2 fold change
  Z.CTG: 0.415
ISC-enriched organoids [1]; Dose 2.00 uM
  Dose.FC.CTG: 0.341 log 2 fold change
  Z.CTG: 0.814
ISC-enriched organoids [1]; Dose 10.00 uM
  Dose.FC.CTG: 0.320 log 2 fold change
  Z.CTG: 0.766
ISC-enriched organoids [2]; Dose 0.08 uM
  Dose.FC.LYZ.S: 0.062 log 2 fold change
ISC-enriched organoids [2]; Dose 0.40 uM
  Dose.FC.LYZ.S: 0.047 log 2 fold change
ISC-enriched organoids [2]; Dose 2.00 uM
  Dose.FC.LYZ.S: −0.051 log 2 fold change
ISC-enriched organoids [2]; Dose 10.00 uM
  Dose.FC.LYZ.S: −0.011 log 2 fold change
ISC-enriched organoids [3]; Dose 0.08 uM
  Dose.FC.LYZ.NS: 0.100 log 2 fold change
  Z.LYZ.NS: 0.871
ISC-enriched organoids [3]; Dose 0.40 uM
  Dose.FC.LYZ.NS: 0.059 log 2 fold change
  Z.LYZ.NS: 0.512
ISC-enriched organoids [3]; Dose 2.00 uM
  Dose.FC.LYZ.NS: 0.030 log 2 fold change
  Z.LYZ.NS: 0.261
ISC-enriched organoids [3]; Dose 10.00 uM
  Dose.FC.LYZ.NS: 0.057 log 2 fold change
  Z.LYZ.NS: 0.494

## COc1cc2c(cc1Cc1cccc(Cl)c1F)c(=O)c(C(=O)O)cn2[C@H](CO)C(C)C [Elvitegravir (GS-9137, JTK-303)]
ISC-enriched organoids [1]; Dose 0.08 uM
  Dose.FC.CTG: −0.001 log 2 fold change
  Z.CTG: −0.001
ISC-enriched organoids [1]; Dose 0.40 uM
  Dose.FC.CTG: −0.040 log 2 fold change
  Z.CTG: −0.095
ISC-enriched organoids [1]; Dose 2.00 uM
  Dose.FC.CTG: −0.344 log 2 fold change
  Z.CTG: −0.823
ISC-enriched organoids [1]; Dose 10.00 uM
  Dose.FC.CTG: −0.737 log 2 fold change
  Z.CTG: −1.760
ISC-enriched organoids [2]; Dose 0.08 uM
  Dose.FC.LYZ.S: −0.010 log 2 fold change
ISC-enriched organoids [2]; Dose 0.40 uM
  Dose.FC.LYZ.S: 0.092 log 2 fold change
ISC-enriched organoids [2]; Dose 2.00 uM
  Dose.FC.LYZ.S: −0.126 log 2 fold change
ISC-enriched organoids [2]; Dose 10.00 uM
  Dose.FC.LYZ.S: −0.135 log 2 fold change
ISC-enriched organoids [3]; Dose 0.08 uM
  Dose.FC.LYZ.NS: −0.047 log 2 fold change
  Z.LYZ.NS: −0.412
ISC-enriched organoids [3]; Dose 0.40 uM
  Dose.FC.LYZ.NS: −0.069 log 2 fold change
  Z.LYZ.NS: −0.598
ISC-enriched organoids [3]; Dose 2.00 uM
  Dose.FC.LYZ.NS: −0.094 log 2 fold change
  Z.LYZ.NS: −0.821
ISC-enriched organoids [3]; Dose 10.00 uM
  Dose.FC.LYZ.NS: −0.090 log 2 fold change
  Z.LYZ.NS: −0.782

## OC[C@H]1O[C@@H](c2ccc(Cl)c(Cc3ccc(O[C@H]4CCOC4)cc3)c2)[C@H](O)[C@@H](O)[C@@H]1O [Empagliflozin (BI 10773)]
ISC-enriched organoids [1]; Dose 0.08 uM
  Dose.FC.CTG: −0.296 log 2 fold change
  Z.CTG: −0.707
ISC-enriched organoids [1]; Dose 0.40 uM
  Dose.FC.CTG: −0.075 log 2 fold change
  Z.CTG: −0.178
ISC-enriched organoids [1]; Dose 2.00 uM
  Dose.FC.CTG: −0.192 log 2 fold change
  Z.CTG: −0.458
ISC-enriched organoids [1]; Dose 10.00 uM
  Dose.FC.CTG: −0.134 log 2 fold change
  Z.CTG: −0.320
ISC-enriched organoids [2]; Dose 0.08 uM
  Dose.FC.LYZ.S: −0.051 log 2 fold change
ISC-enriched organoids [2]; Dose 0.40 uM
  Dose.FC.LYZ.S: −0.055 log 2 fold change
ISC-enriched organoids [2]; Dose 2.00 uM
  Dose.FC.LYZ.S: −0.103 log 2 fold change
ISC-enriched organoids [2]; Dose 10.00 uM
  Dose.FC.LYZ.S: −0.022 log 2 fold change
ISC-enriched organoids [3]; Dose 0.08 uM
  Dose.FC.LYZ.NS: −0.006 log 2 fold change
  Z.LYZ.NS: −0.052
ISC-enriched organoids [3]; Dose 0.40 uM
  Dose.FC.LYZ.NS: −0.034 log 2 fold change
  Z.LYZ.NS: −0.294
ISC-enriched organoids [3]; Dose 2.00 uM
  Dose.FC.LYZ.NS: −0.009 log 2 fold change
  Z.LYZ.NS: −0.081
ISC-enriched organoids [3]; Dose 10.00 uM
  Dose.FC.LYZ.NS: 0.017 log 2 fold change
  Z.LYZ.NS: 0.144

## C[C@H](N[C@@H](CCc1ccccc1)C(=O)O)C(=O)N1CCC[C@H]1C(=O)O.O.O [Enalaprilat Dihydrate]
ISC-enriched organoids [1]; Dose 0.08 uM
  Dose.FC.CTG: −0.190 log 2 fold change
  Z.CTG: −0.454
ISC-enriched organoids [1]; Dose 0.40 uM
  Dose.FC.CTG: −0.124 log 2 fold change
  Z.CTG: −0.296
ISC-enriched organoids [1]; Dose 2.00 uM
  Dose.FC.CTG: −0.331 log 2 fold change
  Z.CTG: −0.791
ISC-enriched organoids [1]; Dose 10.00 uM
  Dose.FC.CTG: −0.979 log 2 fold change
  Z.CTG: −2.338
ISC-enriched organoids [2]; Dose 0.08 uM
  Dose.FC.LYZ.S: −0.001 log 2 fold change
ISC-enriched organoids [2]; Dose 0.40 uM
  Dose.FC.LYZ.S: 0.111 log 2 fold change
ISC-enriched organoids [2]; Dose 2.00 uM
  Dose.FC.LYZ.S: −0.095 log 2 fold change
ISC-enriched organoids [2]; Dose 10.00 uM
  Dose.FC.LYZ.S: −0.281 log 2 fold change
ISC-enriched organoids [3]; Dose 0.08 uM
  Dose.FC.LYZ.NS: 0.003 log 2 fold change
  Z.LYZ.NS: 0.027
ISC-enriched organoids [3]; Dose 0.40 uM
  Dose.FC.LYZ.NS: −0.003 log 2 fold change
  Z.LYZ.NS: −0.030
ISC-enriched organoids [3]; Dose 2.00 uM
  Dose.FC.LYZ.NS: −0.022 log 2 fold change
  Z.LYZ.NS: −0.195
ISC-enriched organoids [3]; Dose 10.00 uM
  Dose.FC.LYZ.NS: −0.157 log 2 fold change
  Z.LYZ.NS: −1.364
